Assays:
[1] = biological target: SyCsx1 (Csx1 homolog of the Synechocystis sp. PCC 6803 CRISPR2 type III-D system) (Synechocystis sp. PCC 6803); test: SEC; Superdex 200 10/300 column in 50 mM Tris pH 8.0, 150 mM NaCl, 5% glycerol; elution volume compared with the monomer's mass; monomer to dimer
SyCsm6 [2] = biological target: T1, SyCsm6 (Synechocystis sp. PCC 6803, UniProt Q6ZED6); test: LC-MS of cOA degradation products; format: biochemical; conditions: ring nuclease; 667 nM cA6, 2 µM SyCsm6, 30 °C, 2 h
T1 construct: gene sll7062; full-length, His-tagged (pQE-80), E. coli BL21(DE3); encoded on plasmid pSYSA, CRISPR2 (III-D) locus
T1 sequence (Q6ZED6 1-371): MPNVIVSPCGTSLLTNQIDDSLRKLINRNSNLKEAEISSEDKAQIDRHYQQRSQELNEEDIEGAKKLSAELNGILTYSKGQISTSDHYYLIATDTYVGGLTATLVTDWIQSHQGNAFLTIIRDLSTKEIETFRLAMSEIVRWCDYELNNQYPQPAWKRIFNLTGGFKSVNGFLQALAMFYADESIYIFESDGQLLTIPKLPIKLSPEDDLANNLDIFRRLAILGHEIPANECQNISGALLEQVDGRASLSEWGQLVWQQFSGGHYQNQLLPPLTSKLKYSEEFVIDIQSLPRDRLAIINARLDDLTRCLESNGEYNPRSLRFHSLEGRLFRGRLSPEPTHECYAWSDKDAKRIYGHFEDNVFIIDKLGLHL

SyCsx1 [3] = biological target: T2, SyCsx1 (Synechocystis sp. PCC 6803, UniProt Q6ZED7); test: fluorogenic RNaseAlert cleavage; format: biochemical; conditions: activator; cFA4 preincubated at 20 nM (mock or with SyCsm6), then 300 nM SyCsx1, 20 nM RNaseAlert substrate, 30 °C
T2 construct: gene slr7061; full-length, His-tagged (pQE-80), E. coli BL21(DE3); about 89 kDa by SEC, dimer; encoded on plasmid pSYSA, CRISPR2 (III-D) locus
T2 sequence (Q6ZED7 1-422): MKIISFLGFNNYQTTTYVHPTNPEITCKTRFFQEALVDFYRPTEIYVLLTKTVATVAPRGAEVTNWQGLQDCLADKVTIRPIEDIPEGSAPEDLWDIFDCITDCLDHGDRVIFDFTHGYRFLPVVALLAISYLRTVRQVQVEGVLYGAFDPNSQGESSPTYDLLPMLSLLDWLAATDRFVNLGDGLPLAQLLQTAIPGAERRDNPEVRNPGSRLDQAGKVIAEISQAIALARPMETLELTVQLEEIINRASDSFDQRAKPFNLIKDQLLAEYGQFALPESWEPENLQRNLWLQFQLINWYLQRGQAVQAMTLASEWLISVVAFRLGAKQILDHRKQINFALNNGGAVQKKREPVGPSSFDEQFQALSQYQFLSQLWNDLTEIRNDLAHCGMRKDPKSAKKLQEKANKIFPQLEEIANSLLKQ

[4] = biological target: SyCsm6 (Csm6 homolog of the Synechocystis sp. PCC 6803 CRISPR2 type III-D system) (Synechocystis sp. PCC 6803); test: SEC; Superdex 200 10/300 column in 50 mM Tris pH 8.0, 150 mM NaCl, 5% glycerol; elution volume compared with the monomer's mass; monomer to dimer
SyCsm6 [5] = biological target: T1, SyCsm6; test: LC-MS of cOA degradation products; coupled SyCsx1 activation assay; format: biochemical; conditions: ring nuclease; 667 nM cA4, 2 µM SyCsm6, 30 °C, 2 h
SyCsx1 [6] = biological target: T2, SyCsx1; test: fluorogenic RNaseAlert cleavage; gel-based RNA cleavage; format: biochemical; conditions: allosteric activator binding the CARF domain; 300 nM cA4, 300 nM SyCsx1, 40 nM RNaseAlert substrate, 50 mM HEPES pH 7.5, 50 mM KCl, 1 mM DTT, 30 °C

## SyCsx1 (Csx1 homolog of the Synechocystis sp. PCC 6803 CRISPR2 type III-D system) (enzyme)
[1]
  stoichiometry N: 2

## Nc1ncnc2c1ncn2[C@@H]1O[C@@H]2COP(=O)(O)O[C@H]3[C@@H](O)[C@H](n4cnc5c(N)ncnc54)O[C@@H]3COP(=O)(O)O[C@H]3[C@@H](O)[C@H](n4cnc5c(N)ncnc54)O[C@@H]3COP(=O)(O)O[C@H]3[C@@H](O)[C@H](n4cnc5c(N)ncnc54)O[C@@H]3COP(=O)(O)O[C@H]3[C@@H](O)[C@H](n4cnc5c(N)ncnc54)O[C@@H]3COP(=O)(O)O[C@H]3[C@@H](O)[C@H](n4cnc5c(N)ncnc54)O[C@@H]3COP(=O)(O)O[C@H]2[C@H]1O [cA6]
SyCsm6 [2]
  LC-MS of cOA degradation products: cA6 was cleaved to A2 > P and an additional product

## Nc1ncnc2c1ncn2[C@@H]1O[C@@H]2COP(=O)(O)O[C@H]3[C@@H](F)[C@H](n4cnc5c(N)ncnc54)O[C@@H]3COP(=O)(O)O[C@H]3[C@@H](F)[C@H](n4cnc5c(N)ncnc54)O[C@@H]3COP(=O)(O)O[C@H]3[C@@H](F)[C@H](n4cnc5c(N)ncnc54)O[C@@H]3COP(=O)(O)O[C@H]2[C@H]1F [cFA4]
SyCsx1 [3]
  fluorogenic RNaseAlert cleavage: cFA4 is a less potent activator of SyCsx1 as seen by the slower substrate turnover

## SyCsm6 (Csm6 homolog of the Synechocystis sp. PCC 6803 CRISPR2 type III-D system) (enzyme)
[4]
  stoichiometry N: 2

## Nc1ncnc2c1ncn2[C@@H]1O[C@@H]2COP(=O)(O)O[C@H]3[C@@H](O)[C@H](n4cnc5c(N)ncnc54)O[C@@H]3COP(=O)(O)O[C@H]3[C@@H](O)[C@H](n4cnc5c(N)ncnc54)O[C@@H]3COP(=O)(O)O[C@H]3[C@@H](O)[C@H](n4cnc5c(N)ncnc54)O[C@@H]3COP(=O)(O)O[C@H]2[C@H]1O [cA4]
SyCsm6 [5]
  LC-MS of cOA degradation products; coupled SyCsx1 activation assay: the substrate peak was gone and cA4 was converted to a product
SyCsx1 [6]
  fluorogenic RNaseAlert cleavage; gel-based RNA cleavage: the addition of cA4 leads to a significant increase of the fluorescence signal
